Measured values taken from US5389655A, “Phenylfuroxans” (Cassella AG, priority 1992, dated 1995).
Structures can show the parent of a compound that is named as a salt.

What follows are compounds tested on pulmonary artery of the guinea-pig (assay: relaxation of guinea-pig potassium-depolarised pulmonary artery strips (inhibition of CaCl2-induced contraction)). Details: Cavia porcellus, read-out: IC50 (concentration of the test substance which inhibits the contraction by 50%).
Source text: As a guanylate cyclase activator, nitrogen monoxide leads to an increase in cyclic guanosine monophosphate, which causes a relaxation in the smooth muscle and antiadhesive and antiaggregatory actions in the blood platelets. Nitrogen monoxide is additionally crucially involved in learning processes, in the regulation of the kidney function, in immune defence, in septic shock and in erectile dysfunctions. […] In this method, spiral strips of the pulmonary artery of the guinea-pig are depolarised using 40 mmol/l potassium after equilibration in calcium-free Tyrode solution. An addition of 0.5 mmol/l of CaCl2 then induces a contraction.

Compound	IC50 [nM]
O=[N+]([O-])O[C@@H]1CO[C@H]2[C@@H]1OC[C@@H]2O [Isosorbide-5-mononitrate, reference compound]	> 100000

Same assay, conditions: Cavia porcellus; spiral strips depolarised with 40 mmol/l potassium; contraction by 0.5 mmol/l CaCl2; cumulative addition; average of 4 to 6 vessel strips; read-out: IC50 (concentration of the test substance which inhibits the contraction by 50%)

Compound	IC50 [nM]
COC(=O)C[S+]([O-])c1no[n+]([O-])c1-c1ccccc1 (stereo not shown) [Compound 2, 3-Phenyl-4-(methoxycarbonylmethylsulphinyl)-1,2,5-oxadiazole-2-oxide]	3000
CCN(CC)CCS(=O)(=O)c1no[n+]([O-])c1-c1ccccc1 [Compound 5, 3-Phenyl-4-(2-diethylaminoethylsulphonyl)-1,2,5-oxadiazole-2-oxide]	700
CN(CCOc1no[n+]([O-])c1-c1ccccc1)Cc1ccccc1 [Compound 6, 3-Phenyl-4-(2-(N-benzyl-N-methylamino)ethoxy)-1,2,5-oxadiazole-2-oxide hydrochloride]	4000
CCCCS(=O)(=O)c1no[n+]([O-])c1-c1ccccc1 [Compound 9, 3-Phenyl-4-butylsulphonyl-1,2,5-oxadiazole-2-oxide]	30
O=S(=O)(CCO)c1no[n+]([O-])c1-c1ccccc1 [Compound 10, 3-Phenyl-4-(2-hydroxyethylsulphonyl)-1,2,5-oxadiazole-2-oxide]	300
[O-][n+]1onc(OCc2cccnc2)c1-c1ccccc1 [Compound 12, 3-Phenyl-4-(pyrid-3-ylmethoxy)-1,2,5-oxadiazole-2-oxide]	3000
NC(=O)C[S+]([O-])c1no[n+]([O-])c1-c1ccccc1 (stereo not shown) [Compound 19, 3-Phenyl-4-(aminocarbonylmethylsulphinyl)-1,2,5-oxadiazole-2-oxide]	2000
CCS(=O)(=O)c1no[n+]([O-])c1-c1ccccc1 [Compound 20, 3-Phenyl-4-ethylsulphonyl-1,2,5-oxadiazole-2-oxide]	50
CCOC(=O)[N-]c1cn(N2CCOCC2)n[o+]1 [Molsidomine, reference compound]	300000
